Assay results published in the NIST ThermoML archive (doi:10.1021/acs.jced.7b01024).
Numbers after ± are expanded uncertainties.

Assay: Boiling temperature at pressure P
Conditions: 101.3 kPa; Liquid; Ebulliometric method (Recirculating still)

| SMILES | Boiling temperature at pressure P [°C] |
| --- | --- |
| CC(=O)OCC(C)C [2-methylpropyl ethanoate] | 116.60 ± 0.2 |
| C=CCO [2-propenol] | 96.8 ± 0.44 |
| CCCCOC(C)=O [butyl ethanoate] | 126.00 ± 0.2 |
| CCCCOC(=O)CC [butyl propanoate] | 145.10 ± 0.2 |
